Experimental data: the NIST ThermoML archive (doi:10.1016/j.jct.2014.05.019)

Assay: xn = mol fraction of the nth substance listed
Conditions: 100 kPa, Liquid; for electrical conductivity: Alternating current cell with electrodes; for viscosity: Falling or rolling sphere viscometry; for mass density: Vibrating tube method

NC(CO)C(=O)[O-].[Na+] (stereo not drawn) [sodium DL-serine] + O
Conditions | electrical conductivity [S/m] | mass density [kg/m3] | viscosity [mPa·s]
303.15 K, x1 = 0.009 | 2.7 | 1028.3 | 0.9965
303.15 K, x1 = 0.018 | 4.28 | 1060.1 | 1.221
303.15 K, x1 = 0.028 | 5.19 | 1090.9 | 1.552
303.15 K, x1 = 0.037 | 5.57 | 1121.1 | 1.967
303.15 K, x1 = 0.048 | 5.59 | 1150.7 | 2.599
303.15 K, x1 = 0.058 | 5.3 | 1181.9 | –
303.15 K, x1 = 0.059 | – | – | 3.496
308.15 K, x1 = 0.009 | 2.98 | 1026.5 | 0.9018
308.15 K, x1 = 0.018 | 4.73 | 1058.1 | 1.097
308.15 K, x1 = 0.028 | 5.74 | 1088.8 | 1.377
308.15 K, x1 = 0.037 | 6.2 | 1118.7 | 1.739
308.15 K, x1 = 0.048 | 6.27 | 1148.2 | 2.28
308.15 K, x1 = 0.058 | 5.99 | 1179.2 | –
308.15 K, x1 = 0.059 | – | – | 3.027
313.15 K, x1 = 0.009 | 3.27 | 1024.6 | 0.8058
313.15 K, x1 = 0.018 | 5.2 | 1055.9 | 0.9981
313.15 K, x1 = 0.028 | 6.3 | 1086.4 | 1.236
313.15 K, x1 = 0.037 | 6.82 | 1116.3 | 1.563
313.15 K, x1 = 0.048 | 6.96 | 1145.5 | 2.007
313.15 K, x1 = 0.058 | 6.69 | 1176.5 | –
313.15 K, x1 = 0.059 | – | – | 2.661
318.15 K, x1 = 0.009 | 3.57 | 1022.5 | 0.7337
318.15 K, x1 = 0.018 | 5.64 | 1053.6 | 0.8941
318.15 K, x1 = 0.028 | 6.87 | 1084 | 1.116
318.15 K, x1 = 0.037 | 7.49 | 1113.7 | 1.394
318.15 K, x1 = 0.048 | 7.66 | 1142.8 | 1.792
318.15 K, x1 = 0.058 | 7.44 | 1173.7 | –
318.15 K, x1 = 0.059 | – | – | 2.351
323.15 K, x1 = 0.009 | 3.87 | 1020.2 | 0.6788
323.15 K, x1 = 0.018 | 6.12 | 1051.2 | 0.8127
323.15 K, x1 = 0.028 | 7.46 | 1081.5 | 1.012
323.15 K, x1 = 0.037 | 8.17 | 1111.1 | 1.26
323.15 K, x1 = 0.048 | 8.38 | 1140.1 | 1.608
323.15 K, x1 = 0.058 | 8.19 | 1170.8 | –
323.15 K, x1 = 0.059 | – | – | 2.091
328.15 K, x1 = 0.009 | 4.17 | 1017.8 | 0.6217
328.15 K, x1 = 0.018 | 6.59 | 1048.7 | 0.7448
328.15 K, x1 = 0.028 | 8.05 | 1078.9 | 0.9186
328.15 K, x1 = 0.037 | 8.86 | 1108.3 | 1.149
328.15 K, x1 = 0.048 | 9.12 | 1137.3 | 1.452
328.15 K, x1 = 0.058 | 8.97 | 1167.9 | –
328.15 K, x1 = 0.059 | – | – | 1.872
333.15 K, x1 = 0.009 | 4.48 | 1015.3 | 0.575
333.15 K, x1 = 0.018 | 7.06 | 1046 | 0.692
333.15 K, x1 = 0.028 | 8.64 | 1076.1 | 0.8431
333.15 K, x1 = 0.037 | 9.52 | 1105.5 | 1.055
333.15 K, x1 = 0.048 | 9.82 | 1134.4 | 1.321
333.15 K, x1 = 0.058 | 9.74 | 1164.9 | –
333.15 K, x1 = 0.059 | – | – | 1.709
338.15 K, x1 = 0.009 | 4.8 | 1012.7 | 0.537
338.15 K, x1 = 0.018 | 7.53 | 1043.2 | 0.6342
338.15 K, x1 = 0.028 | 9.24 | 1073.3 | 0.7788
338.15 K, x1 = 0.037 | 10.2 | 1102.6 | 0.9608
338.15 K, x1 = 0.048 | 10.6 | 1131.4 | 1.206
338.15 K, x1 = 0.058 | 10.5 | 1161.8 | –
338.15 K, x1 = 0.059 | – | – | 1.531
343.15 K, x1 = 0.009 | 5.1 | 1009.9 | 0.4983
343.15 K, x1 = 0.018 | 8.01 | 1040.4 | 0.5945
343.15 K, x1 = 0.028 | 9.84 | 1070.4 | 0.72
343.15 K, x1 = 0.037 | 10.8 | 1099.6 | 0.8858
343.15 K, x1 = 0.048 | 11.3 | 1128.4 | 1.108
343.15 K, x1 = 0.058 | 11.3 | 1158.7 | –
343.15 K, x1 = 0.059 | – | – | 1.399
